Laboratory results taken from patent US5294603A, “Pharmaceutical compositions containing didemnins” (The Board of Trustees of The University of Illinois, priority 1992, dated 1994).
Numbered stars: 1 amine (or outer) side, 2 acyl side, 3 side chain; on linkers, the order of the positions; unused ones are H or OH. Bridge positions count the residues as written; N and C are the ends. Square brackets hold non-standard residues; d marks the D form. Peptide text beside a SMILES is read from it. * marks the point of attachment. X1 = CC[C@H](C)[C@@H](N[*:1])[C@@H](O)CC(=O)O[C@H](C(=O)[C@H](C)C(=O)[*:2])C(C)C; X9 = CCC(C)C(N[*:1])C(O)CC(=O)OC(C(=O)C(C)C(=O)[*:2])C(C)C; NMeY = CN[CH](Cc1ccc(O)cc1)C(=O)O; NMeCha = CN[C@@H](CC1CCCCC1)C(=O)O; X8 = CC(C(=O)*)N1C(=O)c2ccccc2C1=O; dNMeL = CN[C@H](CC(C)C)C(=O)O; pGlu = O=C1CC[C@@H](C(=O)O)N1; NMeL = CN[CH](CC(C)C)C(=O)O; Lac = C[C@H](O)C(=O)O

Assays:
[1] = tested on: Visna virus (VIV); format: cell-based
[2] = tested on: L1210; assay: L1210 cytotoxicity, inhibition at fixed doses (Table 10); format: cell-based, murine
[3] = tested on: L1210 murine leukemia cells; details: Table 9
[4] = dose 25 ng/mL, tested 4/18/1991
[5] = dose 25 ng/mL, tested 4/22/1990
[6] = dose 250 ng/mL, tested 4/18/1991
[7] = dose 250 ng/mL, tested 4/22/1990

| Molecule | VIV Protection [1] | Inhibition (%) [2, 4] [%] | Inhibition (%) [2, 5] [%] | Inhibition (%) [2, 6] [%] | Inhibition (%) [2, 7] [%] | Cytotoxicity L1210 IC50 [3] [ng/mL] |
| --- | --- | --- | --- | --- | --- | --- |
| N-(CH3 ONsu)didemnin A [N-(CH3 ONsu)-didemnin A (111)] | -43 | – | – | – | – | – |
| CC[C@H](C)[C@H]1NC(=O)[C@@H](NC(=O)[C@@H](CC(C)C)NC)[C@@H](C)OC(=O)[C@H](CC2CCCCC2)N(C)C(=O)[C@@H]2CCCN2C(=O)[C@H](CC(C)C)NC(=O)[C@@H](C)C(=O)[C@H](C(C)C)OC(=O)C[C@@H]1O [[H6 -N-MePhe^5] didemnin A (117), [Hexahydro-N-MePhe^5]didemnin A] (H-[dNMeL]T[X1]LP[NMeCha]; ester 2-C) | – | 25 | 75 | 94 | 98 | – |
| CC[C@H](C)[C@H]1NC(=O)[C@@H](NC(=O)[C@@H](CC(C)C)NC)[C@@H](C)OC(=O)[C@H](CC2CCC(OC)CC2)N(C)C(=O)[C@@H]2CCCN2C(=O)[C@H](CC(C)C)NC(=O)[C@@H](C)C(=O)[C@H](C(C)C)OC(=O)C[C@@H]1O (stereo partly shown) [[H6 Me2 Tyr^5]didemnin A (115), [HexahydroMe2 Tyr^5]didemnin A] | – | – | 17 | – | 94 | – |
| CC[C@H](C)[C@H]1NC(=O)[C@@H](NC(=O)[C@@H](CC(C)C)N(C)C(=O)[C@@H]2CCCN2C(=O)[C@H](C)OC(=O)[C@H](CCC(N)=O)NC(=O)[C@@H]2CCC(=O)N2)[C@@H](C)OC(=O)[C@H](Cc2ccc(OC)cc2)N(C)C(=O)[C@@H]2CCCN2C(=O)[C@H](CC(C)C)NC(=O)[C@@H](C)C(=O)[C@H](C(C)C)OC(=O)C[C@@H]1O [Didemnin M (12), Didemnin M] ([pGlu]Q[Lac]P[dNMeL]T[X1]LP[NMeY](Me); ester 6-C) | -73 | – | – | – | – | 0.4 |
| Didemnin E [Didemnin E (20)] | -73 | – | – | – | – | 0.5 |
| CC[C@H](C)[C@H]1NC(=O)[C@@H](NC(=O)[C@@H](CC(C)C)N(C)C(=O)[C@@H]2CCCN2C(=O)[C@H](C)O)[C@@H](C)OC(=O)[C@H](CC2CCC(OC)CC2)N(C)C(=O)[C@@H]2CCCN2C(=O)[C@H](CC(C)C)NC(=O)[C@@H](C)C(=O)[C@H](C(C)C)OC(=O)C[C@@H]1O (stereo partly shown) [[H6 Me2 Tyr^5]didemnin B (116), [HexahydroMe2 Tyr^5]didemnin B] | – | 99 | 98 | 99 | 99 | – |
| Didemnin Y [Didemnin Y (11)] | -33 | – | – | – | – | 2 |
| CC[C@H](C)[C@H]1NC(=O)[C@@H](NC(=O)[C@@H](CC(C)C)N(C)C(=O)[C@@H]2CCCN2C(=O)[C@H](C)OC(=O)[C@@H]2CCC(=O)N2)[C@@H](C)OC(=O)[C@H](Cc2ccc(OC)cc2)N(C)C(=O)[C@@H]2CCCN2C(=O)[C@H](CC(C)C)NC(=O)[C@@H](C)C(=O)[C@H](C(C)C)OC(=O)C[C@@H]1O [pGlu-didemnin B (113), O-Pyroglutamyldidemnin B] ([pGlu][Lac]P[dNMeL]T[X1]LP[NMeY](Me); ester 5-C) | -65 | – | – | – | – | 0.4 |
| Isodidemnin A1 [Isodidemnin A1 (1a)] | < 0 | – | – | – | – | 10 |
| CCC(C)C1NC(=O)C(NC(=O)C(CC(C)C)N(C)C(=O)C2CCCN2C(=O)C(C)N2C(=O)c3ccccc3C2=O)C(C)OC(=O)C(Cc2ccc(OC)cc2)N(C)C(=O)C2CCCN2C(=O)C(CC(C)C)NC(=O)C(C)C(=O)C(C(C)C)OC(=O)CC1O (stereo not shown) [Phthalimidedidemnin B (82), Phthalimide didemnin B] (X8-P[NMeL]T[X9]LP[NMeY](Me); ester 3-C; configuration not given here) | – | 98 | – | 99 | – | – |
| [AnhydroIst^1 ]Phthalimide didemnin B | – | 81 | – | 99 | – | – |
